Values of other authors, collected in patent US20050182074A1 (Pfizer Inc., priority 2004, published 2005).

Columns and labels:
[1] = steady state pharmacokinetics of voriconazole
[2] = AIDS patient on antiretroviral drugs, voriconazole added

effect on voriconazole exposure [1]	plasma concentration on addition of voriconazole [2]	Structure (SMILES)
no clinically relevant effect		COc1ccc2[nH]c([S+]([O-])Cc3ncc(C)c(OC)c3C)nc2c1 (stereo not drawn) [omeprazole]
	elevated plasma concentrations	CC(C)CN(C[C@@H](O)[C@H](Cc1ccccc1)NC(=O)O[C@H]1CCOC1)S(=O)(=O)c1ccc(N)cc1 [amprenavir]
	elevated plasma concentrations	Cc1ccnc2c1NC(=O)c1cccnc1N2C1CC1 [nevirapine]
